By IC50 is commonly meant the point on the concentration scale where inhibition reaches its midpoint.

One assay has as its target T1, PPARγ (Homo sapiens, UniProt P37231).
T1 sequence (P37231 1-477 isoform P37231-2): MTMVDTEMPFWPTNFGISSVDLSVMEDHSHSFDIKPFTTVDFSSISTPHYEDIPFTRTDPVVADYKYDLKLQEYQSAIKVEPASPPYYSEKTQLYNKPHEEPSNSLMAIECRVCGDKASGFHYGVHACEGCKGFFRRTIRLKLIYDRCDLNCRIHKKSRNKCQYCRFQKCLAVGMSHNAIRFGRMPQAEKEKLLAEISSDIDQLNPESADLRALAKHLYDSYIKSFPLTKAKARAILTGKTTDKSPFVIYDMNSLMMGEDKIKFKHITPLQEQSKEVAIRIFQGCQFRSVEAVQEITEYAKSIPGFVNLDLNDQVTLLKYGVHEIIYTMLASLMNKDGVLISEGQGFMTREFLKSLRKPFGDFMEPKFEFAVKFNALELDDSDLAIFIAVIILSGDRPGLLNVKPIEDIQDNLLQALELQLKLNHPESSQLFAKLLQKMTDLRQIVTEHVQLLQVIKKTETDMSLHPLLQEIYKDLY
In kind it is cell-based. As to conditions: for effect on induction by rosiglitazone (coincubation): 0–5 µM NO2-LA isomer with fixed 0.1 µM rosiglitazone; for mean induction as a percentage of induction by 0.1 µM rosiglitazone (100%): ligands at 5 µM, mean of 6–18 determinations ± SEM; for agonist (full or partial): relative to rosiglitazone, defined as full agonist; for PPARγ activation (in words): concentrations as high as 100 µM.

Assay [1] deals with T2, GST-hPPARα (recombinant human PPARα) (Homo sapiens, UniProt Q07869).
T2 sequence (Q07869 1-468): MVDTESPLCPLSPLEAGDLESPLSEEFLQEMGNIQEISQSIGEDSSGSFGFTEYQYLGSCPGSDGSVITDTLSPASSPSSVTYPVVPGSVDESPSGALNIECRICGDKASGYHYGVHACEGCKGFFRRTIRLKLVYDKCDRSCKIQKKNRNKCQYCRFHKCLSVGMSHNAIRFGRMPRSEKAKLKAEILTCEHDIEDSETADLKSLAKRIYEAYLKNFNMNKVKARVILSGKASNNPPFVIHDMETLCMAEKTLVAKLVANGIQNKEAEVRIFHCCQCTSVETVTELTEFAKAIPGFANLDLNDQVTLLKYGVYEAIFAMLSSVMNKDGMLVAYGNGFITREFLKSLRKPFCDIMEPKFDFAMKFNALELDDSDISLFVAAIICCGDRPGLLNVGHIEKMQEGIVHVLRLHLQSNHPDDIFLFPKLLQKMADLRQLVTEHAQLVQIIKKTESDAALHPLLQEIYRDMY
Description: Radioligand competition scintillation proximity binding assay, PPARα. For orientation: Displacement assays read how much labelled ligand stays bound in the presence of the test substance.

Assay [2] concerns the target T3, GST-hPPARγ (recombinant human PPARγ) (Homo sapiens, UniProt P37231).
T3 sequence (P37231 1-505): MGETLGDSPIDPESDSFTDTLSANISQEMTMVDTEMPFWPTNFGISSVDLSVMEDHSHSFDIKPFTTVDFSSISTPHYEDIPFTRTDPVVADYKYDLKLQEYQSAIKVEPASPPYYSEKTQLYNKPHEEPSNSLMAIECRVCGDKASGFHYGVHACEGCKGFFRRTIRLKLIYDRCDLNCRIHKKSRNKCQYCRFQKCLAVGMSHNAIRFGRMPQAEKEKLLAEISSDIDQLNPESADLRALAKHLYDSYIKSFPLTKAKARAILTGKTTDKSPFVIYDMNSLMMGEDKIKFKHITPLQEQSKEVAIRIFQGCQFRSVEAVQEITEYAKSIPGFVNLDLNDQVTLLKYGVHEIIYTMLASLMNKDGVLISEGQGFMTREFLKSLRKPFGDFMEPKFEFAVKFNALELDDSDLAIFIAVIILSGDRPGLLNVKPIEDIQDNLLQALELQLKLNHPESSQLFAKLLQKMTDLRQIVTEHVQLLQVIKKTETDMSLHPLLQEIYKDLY
Description: Radioligand competition scintillation proximity binding assay, PPARγ.

Like-named read-outs stand apart in the source and are kept apart here. Some results are limits rather than exact numbers.

Take `CCCCC/C(=C\C/C=C\CCCCCCCC(=O)O)[N+](=O)[O-]` [13-NO2-linoleic acid, (9Z,12E)-13-nitrooctadeca-9,12-dienoic acid]: on PPARγ, the “EC50 fold higher than for 12-NO2-LA” value is given as “more than 10 fold”, the “maximum level of PPARγ activation as % of that of the 12-NO2 isomer” value is ~ 50%, the “effect on induction by rosiglitazone (coincubation)” value is recorded as “significantly reduced the level of induction by rosiglitazone” and the “mean induction as a percentage of induction by 0.1 µM rosiglitazone (100%)” value was determined as 41 ± 5%. The “agonist (full or partial)” value on PPARγ is reported as “partial”. Also, the “agonist (full or partial)” value at PPARγ (listed as 13-NO2-LA) is reported as “partial agonists”. For the same molecule, the half-maximal inhibitory concentration (IC50) in assay [1] was > 15 µM. The half-inhibitory concentration (IC50) in assay [2] is 0.44 µM.

For `CCCCC/C=C\C/C=C\CCCCCCCC(=O)O` [linoleic acid, (9Z,12Z)-octadeca-9,12-dienoic acid, reference compound], the “PPARγ activation (in words)” value on PPARγ was “negligible PPARγ activation”; on PPARγ (listed as Linoleic acid), “does not support activation”. Also, the results for the half-inhibitory concentration (IC50) in assay [1] and in assay [2] were > 15 µM and 10.7 µM, respectively. The “binding affinity for PPARγ (in words)” value in assay [2] was “very low affinity”.

`CCCCC/C=C(\C/C=C\CCCCCCCC(=O)O)[N+](=O)[O-]` [12-NO2-linoleic acid, (9Z,12E)-12-nitrooctadeca-9,12-dienoic acid]: at PPARγ, the “effect on induction by rosiglitazone (coincubation)” value was “less pronounced”, the “mean induction as a percentage of induction by 0.1 µM rosiglitazone (100%)” value was determined as 76 ± 9% and the “agonist (full or partial)” value is listed as “partial”. Also, the “agonist (full or partial)” value on PPARγ (listed as 12-NO2) was “nearly full agonist activity”. The “agonist (full or partial)” value on PPARγ (listed as 12-NO2-LA) is “partial agonists”. Further, the “apparent affinity for PPARα (in words)” value in assay [1] is “very low”.

Values taken from PMC9972884 (Biochemistry, 2009).
